Laboratory results: patent publication US9683014B2, “Dipeptide mimetics of NGF and BDNF neurotrophins” (UCHREZHDENIE ROSSIISKOI AKADEMII MEDITSYNSKIKH NAUK …, priority 2009, dated 2017)
“And” between values parts separate entries of the source, which are not always exact repeats. Equal entries are not always repeated. Where two headings read alike, the source gives them in different places.

Legend:
[1] = tested on: HT-22 cells; test: Oxidative stress (H2O2) model in cultured HT-22 cells (MTT test); type: cell-based, mouse
Protocol: To induce an oxidative stress, the cells were placed in a growth medium containing 5% FBS, then a freshly prepared H2O2 solution was added to a final concentration of 1.5 mM and incubated for 30 min at 37° C. and 5% CO2. Thereafter, the medium was replaced with a new one and the cells were cultured for 4 h under the same conditions.
The determination of cell viability was carried out by MTT test. […] At the end of an experiment the growth medium was replaced with an MTT solution (0.5 mg/ml) and incubated for 30 min at 37° C. and 5% CO2. The MTT solution was then removed from the wells and DMSO was added to dissolve the formazan precipitate. Then the optical density was measured using a Multiscan (Thermo) spectrophotometer at a wavelength of 600 nm.

[2] = tested on: Hsp70; test: Western blot of Hsp70 in HT-22 cells; type: cell-based, mouse; conditions: 24 h after addition; GK-1, GK-2 10^−8 and 10^−5 M; GK-3 10^−6 M; GK-4 10^−7 M; GK-5 10^−6 M
Protocol: The amount of Hsp70, Hsp32 and pTrkA was determined in the cytoplasmic fraction of HT-22 neuronal cells. For heat shock proteins, a test compound was added to the culture 24 hours prior to testing, before the cells were washed off the culture liquid with PBS. For pTrkA, a test compound was added to the culture immediately prior to the cell lysis just for 1 or 2 min, before the cells were washed off the culture liquid with PBS. Then the cells were mixed with the lysis buffer (50 mM Tris-HCl, 5 mM EDTA, 1 mM DTT, 1% Triton X-100, pH 7.5) at 4° C. and lysed for 5 min, then scraped off, transferred into a 1.5 ml centrifuge tube and centrifuged at 13000 rpm and 4° C. for 10 min. The supernatant containing cytosolic proteins was assayed by electrophoresis and immunoblotting. Proteins were separated on a 10% polyacrylamide gel (PAAG) and transferred from PAAG onto a PVDF membrane by electroelution for 45 min. Western blots were pre-incubated for 1 h in a TBST solution containing 1% Tween-20 and supplemented with 5% (w/v) skim milk. Western blots were then incubated with the primary polyclonal anti-Hsp32 antibody diluted 1:1000 or primary monoclonal anti-Hsp70 antibody diluted 1:1000 or primary monoclonal anti-phosphorylated tyrosine kinase A antibody diluted 1:1000 for 1 hour. Then the blots were washed and incubated with a secondary antibody conjugated to horseradish peroxidase (diluted 1:2000) for 1 hour. The detection of Hsp70, Hsp32 and pTrkA was carried out by the ECL reaction on a Kodak film.

[3] = tested on: rat cerebral cortex cells; conditions: 1 mg/kg i.p., 4 injections; cells isolated day 16; FIG. 2.9
Protocol: (§1) The experiments were conducted on male outbred rats weighing 350-420 g. The test compound was administered intraperitoneally at a dose of 1 mg/kg. On day 1 the animals were given the first injection of the test compound. 24 hours later (day 2) they underwent surgery for a bilateral ligation of the carotid artery. Following another 24 h (day 3) the animals were given the second injection of the test compound. 96 hours later (day 7) they were given the third injection of the test compound. Following another 24 h (day 8) the animals were tested in an open field test (Jackson H. F., Broadhurst P. L. The effects of parachlorophenylalanine and stimulus intensity on open-field test measures in rats. Neuropharmacology, 1982, 21, 1279-1282). On the next day (day 9) they were allowed to explore new objects (a modification of the test described in Ennaceur A., Delacour J. A new one-trial test for neurobiological studies of memory in rats. 1: Behavioral data. Behavioral Brain Research, 1988, 31, 47-59). On day 11 the animals were given the fourth injection of the test compound. The animals were sacrificed by decapitation 120 hours after the last injection of the test compound (day 16).
(§2) The rats were distributed into 3 groups (n≧8 for each group) at random. Group 1 (sham-operated) comprised animals that were anesthetized followed by a sham operation and subsequently received 4 injections of physiological saline according to the experimental set-up; Group 2 (ligation) comprised animals that were anesthetized followed by surgery for a bilateral ligation of the carotid artery and subsequently received 4 injections of saline according to the experimental set-up; Group 3 (ligation+test compound) comprised animals that were anesthetized followed by surgery for a bilateral ligation of the carotid artery and subsequently received 4 injections of the test compound according to the experimental set-up.

[4] = tested on: rats with bilateral ligation of the carotid artery; conditions: 1 mg/kg i.p.
Protocol: as §1, §2

With `NCCCC[C@H](NC(=O)[C@H](CCC(=O)O)NC(=O)CCC(=O)O)C(=O)NCCCCCCNC(=O)[C@H](CCCCN)NC(=O)[C@H](CCC(=O)O)NC(=O)CCC(=O)O` [GK-2, bis-(N-monosuccinyl-glutamyl-lysine) hexamethylenediamide] the “Optical density (MTT)” value [1] was 0.324 ± 0.070^ and 0.345 ± 0.065^, the “effect when added immediately after the oxidative stress exposure” value ([1]; 10^−8 M to 10^−5 M) was “therapeutic effect” and the “Optical density (MTT)” value ([1]; Table 1.4, 10^−5M, 24 h before H2O2, control 0.427 ± 0.071, H2O2 0.350 ± 0.052) was 0.422 ± 0.063^. The “Optical density (MTT)” value ([1]; Table 1.4, 10^−8M, 24 h before H2O2, control 0.427 ± 0.071, H2O2 0.350 ± 0.052) was 0.501 ± 0.109^, the “Optical density (MTT)” value ([1]; Table 1.4, 10^−9M, 24 h before H2O2, control 0.427 ± 0.071, H2O2 0.350 ± 0.052) was 0.516 ± 0.068^ and the “neuronal survival under oxidative stress” value ([1]; added 24 hours prior to the stress exposure, 10^−8 M to 10^−5 M) was “improved the neuronal survival”. The “amount of Hsp70” value [2] was “increase”, the “viability of the cortical cells (MTT)” value [3] was “enhanced” and the “horizontal motor activity in the open field test” value ([4]; day 8, ligation reduced it, FIG. 2.5) was “restored it to the level found in the sham-operated rats”. For the same compound, the “vertical motor activity in the open field test” value ([4]; day 8, ligation reduced it, FIG. 2.6) was “restored it to the level found in the sham-operated rats” and the “total object smelling time and first-minute object exploration” value ([4]; day 9, FIGS. 2.7, 2.8) was “not different from the sham-operated rats”.
